Source: PMC8765320, “Identification of a Proteasome-Targeting Arylsulfonamide with Potential for the Treatment of Chagas’ Disease” (Antimicrobial Agents and Chemotherapy, 2022)
Where two headings read alike, the source gives them in different places.

How the values were obtained:
[1] = test system: T. cruzi amastigotes within Vero cells; test: Drug sensitivity assay against T. cruzi-infected Vero cells (intracellular amastigotes); assay type: cell-based, Trypanosoma cruzi; conditions: for EC50: Trypanosoma cruzi, Vero
Protocol: The clonal Leishmania donovani cell line LdBOB (derived from MHOM/SD/62/1S-CL2D) was grown as either promastigotes or axenic amastigotes in media specific for each developmental stage, as previously described ([32]). T. cruzi epimastigotes from the Silvio strain (MHOM/BR/78/Silvio; clone X10/7A [33]) were grown at 28°C in RTH/FBS (RPMI 1640 medium supplemented with Trypticase, hemin, HEPES, and 10% heat-inactivated fetal calf serum (FCS) [Fisher Scientific]) ([34]). Bloodstream form T. brucei “single marker” S427 (T7RPOL TETR NEO) were cultured in the presence of G418 (15 μg ml^−1) at 37°C in HMI9-T media in the presence of 5% CO2. HepG2 cells (ECACC 85011430) were obtained from European Collection of Authenticated Cell Culture (ECACC). Cells were maintained in full growth medium (minimal essential medium [MEM] with GlutaMAX (Thermo Fisher), supplemented with 1% MEM nonessential amino acids (Sigma) and 10% heat-inactivated FBS and cultured at 37°C in the presence of 5% CO2. Cells were passaged twice weekly by detaching adherent cells with 0.05% trypsin/EDTA (Sigma) and diluted into fresh media. Cells were never grown beyond 80% confluence. Vero cells (African green monkey kidney cells; ECCAC 84113001) were maintained at 37°C, 5% CO2 in Dulbecco modified Eagle medium (DMEM; Lonza) supplemented with 10% FCS and subcultured every 2 days. T. cruzi metacyclic trypomastigotes were obtained from late-log-phase epimastigote cultures (initial inoculum, 10^6 ml^−1) after ca. 7 to 10 days at 28°C in RTH/FBS. Trypomastigote-rich cultures were incubated with Vero cells overnight at 37°C and 5% CO2 in DMEM/10% FCS. The following day, extracellular parasites were removed by washing the Vero cell monolayer three times. Infected monolayers were maintained at 37°C and in 5% CO2, DMEM/10% FCS was replaced every 48 h until the trypomastigotes reemerged from the Vero cells ([9]).
Drug sensitivity assays against T. cruzi-infected Vero cells were carried out as previously described ([37]); however, in this instance, assays were carried out in 96-well plates. Data were processed using GRAFIT (Erithacus software) and fitted to a two-parameter equation, as described above.

[2] = test system: L. donovani axenic amastigote; test: L. donovani axenic amastigote drug sensitivity assay; assay type: cell-based; conditions: Leishmania donovani, weighted mean, n ≥ 3, read-out: Mean compound 1 EC50 ± SD
Protocol: (§1) L. donovani promastigote ([35]), axenic amastigote ([25]), and T. brucei bloodstream form ([36]) drug sensitivity assays were carried out as previously described. HepG2 monolayers were washed twice in PBS, detached with 0.05% trypsin/EDTA, and then diluted with fully supplemented MEM growth medium. Cells were pelleted at 80 × g for 5 min and resuspended in fully supplemented growth medium. Cells were seeded into 96-well plates (5 × 10^4/well) and allowed to adhere prior to exposure to test compounds. Plates were incubated at 37°C in the presence of 5% CO2 for 72 h. After incubation, resazurin (20 μl of a 2.5-mg/ml^−1 stock solution) was added to each well, followed by incubation for a further 2 h prior to fluorescence being read as described above.

[3] = test system: L. donovani promastigotes; test: L. donovani promastigote drug sensitivity assay; assay type: cell-based, Leishmania donovani; conditions: for EC50: Leishmania donovani
Protocol: as §1

[4] = test system: T. cruzi epimastigotes; test: T. cruzi epimastigote drug sensitivity assay (resazurin); assay type: cell-based, Trypanosoma cruzi; conditions: for EC50: Trypanosoma cruzi
Protocol: To examine the effects of test compounds on the growth of T. cruzi epimastigotes, mid-log-phase parasites were seeded into 96-well plates at a cell density of 5 × 10^5 cells ml^−1. Cells were exposed to test compounds over a range of concentrations (2-fold serial dilutions). Cells were incubated for 4 days, and then 20 μl of 2.5 mM resazurin was added to each well, before measuring the fluorescence (excitation, 528 nm; emission, 590 nm), following a further 24 h of incubation. […] In this equation, [I] represents the inhibitor concentration, and m is the slope factor. Experiments were repeated at least two times, and the data are presented as means plus the standard deviations.

[5] = test system: T. brucei BSF; test: T. brucei bloodstream form drug sensitivity assay; assay type: cell-based; conditions: Trypanosoma brucei, weighted mean, n ≥ 3, read-out: Mean compound 1 EC50 ± SD
Protocol: as §1

SMILES: COc1ccc(NS(=O)(=O)c2cc(-c3cc(C)n[nH]3)ccc2C)cc1OC [Compound 1]
- EC50 ([1]; T. cruzi Intra-Vero, weighted mean, n ≥ 3, read-out: Mean compound 1 EC50 ± SD): 1.3 ± 0.2 µM
- EC50 ([1]; in Vero cells, cell line ME OE, (*) one biological replicate, read-out: EC50 values): 0.8 ± 0.07 µM
- EC50 ([1]; in Vero cells, cell line RES 1, read-out: EC50 values): 10 ± 5 µM
- EC50 ([1]; in Vero cells, cell line RES 5, read-out: EC50 values): > 50 µM
- EC50 ([1]; in Vero cells, cell line Wild-type, read-out: EC50 values): 1 ± 0.2 µM
- EC50 ([1]; in Vero cells, cell line β5 OE rescue R1, (*) one biological replicate, read-out: EC50 values): 3 ± 0.2 µM
- EC50 ([1]; in Vero cells, cell line β5 OE, read-out: EC50 values): 1 ± 0.2 µM
- EC50 ([1]; read-out: EC50 values, in Vero cells, cell line β4 F24L/I29M): > 23 µM
- EC50 ([1]; read-out: EC50 values, in Vero cells, cell line β5 D225N-OE, (*) one biological replicate): 12 ± 1.4 µM
- fold change versus WT ([1]; in Vero cells, cell line ME OE): 1 fold
- fold change versus WT ([1]; in Vero cells, cell line RES 1): 8 fold
- fold change versus WT ([1]; in Vero cells, cell line RES 5): > 42 fold
- fold change versus WT ([1]; in Vero cells, cell line Wild-type): 1 fold
- fold change versus WT ([1]; in Vero cells, cell line β4 F24L/I29M): > 19 fold
- fold change versus WT ([1]; in Vero cells, cell line β5 D225N-OE): 10 fold
- fold change versus WT ([1]; in Vero cells, cell line β5 OE): 1 fold
- fold change versus WT ([1]; in Vero cells, cell line β5 OE rescue R1): 2 fold
- EC50 [2]: 0.7 ± 0.1 µM
- fold change versus WT ([3]; L. donovani cell line cLdME OE): =
- fold change versus WT ([3]; L. donovani compound 2-resistant line (G197S in β5 subunit)): 260 fold
- EC99 in promastigotes ([3]; L. donovani promastigotes): 300 nM
- EC50 ([3]; read-out: Compound 1 EC50 values, L. donovani cell line Compound 2 RES III (G197S in β5 subunit)): 26 ± 4 µM
- EC50 ([3]; L. donovani cell line Wild-type, read-out: Compound 1 EC50 values): 0.1 ± 0.005 µM
- EC50 ([3]; L. donovani promastigote, weighted mean, n ≥ 3, read-out: Mean compound 1 EC50 ± SD): 0.1 ± 0.005 µM
- EC50 ([4]; T. cruzi epimastigote, weighted mean, n ≥ 3, read-out: Mean compound 1 EC50 ± SD): 3 ± 0.08 µM
- EC50 ([4]; WT promastigotes (so in the source), Fig. 2B, one biological replicate, read-out: EC50): 0.7 ± 0.01 µM
- EC50 ([4]; cell line Wild type, read-out: Mean EC50 ± SD): 3.3 ± 0.08 µM
- EC50 ([4]; read-out: Mean EC50 ± SD, cell line ME OE (cTcME overexpressing)): 5 ± 0.11 µM
- EC50 ([4]; read-out: Mean EC50 ± SD, cell line RES I (compound 1-resistant, β5 D225N)): 61 ± 1 µM
- EC50 ([4]; read-out: Mean EC50 ± SD, cell line RES II (compound 1-resistant, β5 D225N)): 54 ± 1 µM
- EC50 ([4]; read-out: Mean EC50 ± SD, cell line RES III (compound 1-resistant, β5 D225N)): 61 ± 0.7 µM
- EC50 ([4]; read-out: Mean EC50 ± SD, cell line RES IV (compound 1-resistant, no proteasome mutation)): 31 ± 2 µM
- EC50 ([4]; read-out: Mean EC50 ± SD, cell line RES V (compound 1-resistant, β4 I27T)): 70 ± 2 µM
- EC50 ([4]; read-out: Mean EC50 ± SD, cell line Res I-β5 OE (β5 WT overexpressed in RES I)): 13 ± 0.8 µM
- EC50 ([4]; read-out: Mean EC50 ± SD, cell line β4 F24L/I29M (CRISPR-edited)): > 50 µM
- EC50 ([4]; read-out: Mean EC50 ± SD, cell line β5 D225N-OE (overexpressing mutated β5)): 27 ± 1 µM
- EC50 ([4]; resistant clone I, Fig. 2B, one biological replicate, read-out: EC50): 23 ± 4 µM
- EC50 ([4]; resistant clone II, Fig. 2B, one biological replicate, read-out: EC50): 16 ± 0.3 µM
- EC50 ([4]; resistant clone IV, Fig. 2B, one biological replicate, read-out: EC50): 11 ± 1 µM
- EC50 ([4]; resistant clone V, Fig. 2B, one biological replicate, read-out: EC50): 14 ± 6 µM
- fold change versus the WT ([4]; cell line ME OE): 1 fold
- fold change versus the WT ([4]; cell line RES I): 18 fold
- fold change versus the WT ([4]; cell line RES II): 16 fold
- fold change versus the WT ([4]; cell line RES III): 18 fold
- fold change versus the WT ([4]; cell line RES IV): 9 fold
- fold change versus the WT ([4]; cell line RES V): 21 fold
- fold change versus the WT ([4]; cell line Res I-β5 OE): 4 fold
- fold change versus the WT ([4]; cell line β4 F24L/I29M): > 15 fold
- fold change versus the WT ([4]; cell line β5 D225N-OE): 8 fold
- susceptibility of CRISPR-edited epimastigotes ([4]; β4 F24L and I29M, at all of the concentrations tested): refractory
- EC50 [5]: 0.3 ± 0.013 µM
